Assay results reported in US11370775B2, “Substituted benzimidazole derivatives as D-amino acid oxidase (DAAO) inhibitors” (NATIONAL TAIWAN UNIVERSITY, priority 2016, dated 2022).

Tests used:
Type in all cases: in vivo
[1] = test system: MK-801-induced hyperlocomotion in C57BL/6 mice; assay: Open field, MK-801-induced hyperlocomotion; conditions: for Effect on MK-801 induced hyperlocomotion (open field): MK-801 0.2 mg/kg i.p., mice; for Effect on MK-801-induced hyperlocomotion (FIG. 1): different dosages, compared to the MK-801 group
Excerpt: (§1) The NMDA-receptor antagonist MK-801-induced negative or cognitive deficits in C57BL/6 mice were in a well-established drug-induced schizophrenia mouse model and as a useful pharmacological animal model to identify if the RS-D7, its analog and its prodrug improve the symptoms through the NMDA receptor.
(§2) All wild-type (WT) mice used in this study were backcrossed onto a C57BL/6J background from the Laboratory Animal Center of National Taiwan University Hospital, and all behavioral examinations were conducted in WT mice. For acclimatizing to laboratory conditions, the mice were allowed free access to food and water and were housed in groups with a 12 hours light-dark cycle in a temperature and humidity controlled room of the Psychology Department, National Taiwan University. All animals within the age of 3 months were housed individually one week before experiment testing with food and water available ad libitum. In the beginning of the experiments, the mice were handled and weighted daily at least 1 week before the behavioral experiments. The entire animal procedures were performed according to protocols approved by the Animal Care and Use Committee established by the National Taiwan University.
(§3) MK-801 was dissolved in saline and administered at a volume of 0.01 ml/g body weight. RS-D7, Drug 12083 (analog of RS-D7) and was freshly dissolved in 1% CMC to the concentration of 2 mg/ml before usage. Prodrug 28095 was freshly dissolved in NMP:HP-beta-CD:H2O (5:25:70) to the concentration of 2 mg/ml before usage. All animals were given vehicle (saline) or MK-801 (0.2 mg/kg, i.p.) 25 minutes before the behavioral experiments. Both vehicle (1% CMC or NMP:HP-beta-CD:H2O) and experimental groups (RS-D7, Drug 12083 or Prodrug 28095) were treated after 5 minutes MK-801 administration with the appropriate dose via P.O. injections (at a volume of 0.01 ml/g body weight).
(§4) For investigating the treatment effect of RS-D7 for negative and cognitive symptoms, a series of three behavioral tests (run from the first to the third week), which included open field, sucrose preference test and prepulse inhibition were performed in sequence with a 1-week interval between tests.
To assess spontaneous locomotor activity, each subject was placed into the center of an open-field apparatus (25.40*25.40*40.64 cm^3, Coulbourn Instruments, Whitehall, Pa., USA) under dim lighting condition (60 lx). Motor activity parameters (including total travel distance and travel distance per 10 minutes) were monitored and recorded over a 60 minutes period by using Smart video tracking software (Panlab, Harvard apparatus, US). For comparing the treatment effects of different treatment groups, the percentage change of rescue effect on MK-801-induced hyperlocomotion was calculated using the following formula: %=(rescue effect of drug−MK-801 effect)×100%/MK-801 effect.

[2] = test system: MK-801-induced anhedonia in C57BL/6 mice; assay: Sucrose preference test, MK-801-induced anhedonia; conditions: for Effect on MK-801 induced anhedonia (sucrose preference): MK-801 0.2 mg/kg i.p., mice; for Effect on anhedonia after acute MK-801 injection (FIG. 2): different dosages
Excerpt: as §1, §2, §3, §4
To assess the anhedonia, one of the negative symptoms of schizophrenia, all mice underwent 4-day testing. In the beginning of the sucrose preference, all mice were deprived of water for 23 hours in all the experiment from one day before the first day. On the first day, each mouse was given free access to 2 identical bottles with water for 1 hour. Then, the 2 identical bottles were replaced that one filled with 1% (wt/vol) sucrose solution and the other with water on the second day. On the third and fourth day, each mouse was received MK-801 and RS-D7 treatment before the experiment, and also free accessed to bottles for 1 hour. After the experiment, the 2 bottles were weighted to measure the 1-hour consumption of sucrose solution and water. The sucrose preference percentage (SPP) was calculated using the following formula: % SPP=sucrose solution consumption (g)×100%/[water consumption (g)+sucrose solution consumption (g)].

[3] = test system: MK-801-induced PPI deficit in C57BL/6 mice; assay: Prepulse inhibition, MK-801-induced PPI deficit; conditions: MK-801 0.2 mg/kg i.p.
Excerpt: as §1, §2, §3, §4
To assess the sensorimotor gating function, each mouse was tested with the SR-LAB startle apparatus (San Diego Instruments, San Diego, Calif., USA). The background noise was 72 dB during testing. Each session was initiated with a 5 minutes acclimatization period followed by 64 trials, consisting of pulse-alone (P-alone) trials, prepulse pulse (pp+P) trials, and no stimulation (nostim) trials. A P-alone trial was a 120 dB white noise burst of 40 msec. In the pp+P trials, the 120 dB pulse was preceded (by 100 msec) by a 20 msec of white noise prepulse burst of 78 dB (PP6), 82 dB (PP10), or 90 dB (PP18). The nostim trials consisted of background noise only. The session began and ended with a block of six presentations of the P-alone trial. Between these two blocks, the rest of the 52 trials were performed pseudorandomly and separated by intertrial intervals of 15 sec on average (varying between 10 and 20 sec). PPI was calculated as a percentage of the startle response using the formula: % PPI=100× [(P-alone score)-(pp+P score)]/(pulse-alone score), where the pulse-alone score was the average of the pulse-alone values from the in-between block of 52 trials.

Row | SMILES | Effect on MK-801 induced hyperlocomotion (open field) ([1]; 20 mg/kg P.O.) | Effect on MK-801 induced hyperlocomotion (open field) ([1]; 40 mg/kg P.O.) | Effect on MK-801-induced hyperlocomotion (FIG. 1) [1] | Effect on MK-801 induced anhedonia (sucrose preference) ([2]; 20 mg/kg P.O.) | Effect on anhedonia after acute MK-801 injection (FIG. 2) [2] | Effect on MK-801 induced PPI deficit ([3]; 20 mg/kg P.O.) | Effect on MK-801 induced PPI deficit ([3]; 40 mg/kg P.O.) | Effect on MK-801 induced hyperlocomotion (open field) ([1]; 100 mg/kg P.O.) | Effect on MK-801 induced hyperlocomotion (open field) ([1]; 200 mg/kg P.O.) | Effect on MK-801 induced hyperlocomotion (open field) ([1]; 400 mg/kg P.O.) | Effect on MK-801 induced anhedonia (sucrose preference) ([2]; 100 mg/kg P.O.) | Effect on MK-801 induced anhedonia (sucrose preference) ([2]; 200 mg/kg P.O.) | Effect on MK-801 induced anhedonia (sucrose preference) ([2]; 400 mg/kg P.O.) | Effect on MK-801 induced PPI deficit ([3]; 100 mg/kg P.O.) | Effect on MK-801 induced PPI deficit ([3]; 200 mg/kg P.O.) | Effect on MK-801 induced PPI deficit ([3]; 400 mg/kg P.O.)
1 | COc1c(C)cnc(CSc2nc3cc(C(=O)O)ccc3n2CCC2=CCCCC2)c1C [compound 12083, 1-(2-(cyclohex-1-en-1-yl)ethyl)-2-(((4-methoxy-3,5-dimethylpyridin-2-yl)methyl)thio)-1H-benzo[d]imidazole-5-carboxylic acid] | alleviated MK-801 induced hyperlocomotion deficits | alleviated MK-801 induced hyperlocomotion deficits | can rescue the MK-801-induced hyperlocomotion | normalized MK-801 induced anhedonia | rescue the anhedonia after acute MK-801 injection | significantly alleviated MK-801 induced PPI deficit | significantly alleviated MK-801 induced PPI deficit |  |  |  |  |  |  |  |  | 
2 | COc1c(C)cnc(C[S+]([O-])c2nc3ccc(O)cc3[nH]2)c1C (stereo not drawn) [RS-D7, reference compound] |  |  | can rescue the MK-801-induced hyperlocomotion |  | rescue the anhedonia after acute MK-801 injection |  |  | did not display the treatment effect | rescued the MK-801 induced hyperlocomotion | rescued the MK-801 induced hyperlocomotion | rescued the MK-801 induced anhedonia deficit | rescued the MK-801 induced anhedonia deficit | rescued the MK-801 induced anhedonia deficit | significantly alleviated MK-801 induced PPI deficit | significantly alleviated MK-801 induced PPI deficit | significantly alleviated MK-801 induced PPI deficit
